Experimental data published in patent US9669141B2, “Tissue-engineered pumps and valves and uses thereof” (President and Fellows of Harvard College, priority 2012, dated 2017).

Each compound was assayed on Jellyfish swimming muscle (assay: Excitation-contraction uncoupling of jellyfish swimming muscle during optical mapping). Details: juvenile jellyfish, artificial seawater at room temperature.
Type: in vivo, Aurelia aurita
Protocol: PMDS-coated glass cover slips with cardiomyocyte monolayers of medusoid muscle architecture were assayed in a custom-made optical mapping system (FIGS. 7i-o) by adapting previously described protocols. Briefly, the cultures were incubated for 5 minutes in 8 μM RH-237 voltage-sensitive dye (Iex/Iem in DMSO=˜550/˜800 nm; Molecular Probes) in Tyrode's solution, then washed with Tyrode's solution. During recording, the tissue was placed in Tyrode's solution containing 10 μM excitation-contraction uncoupler blebbistatin, thereby minimizing motion artifacts. All solutions were maintained at 35-37° C. A platinum point electrode connected to a Grass S48 stimulator (Grass technologies, West Warwick, R.I. 02893, USA) was placed ˜1 mm above the culture surface (FIG. 7i) and used to apply point stimuli (2 Hz, 5-8 V, 10-ms duration). Imaging was performed using an inverted microscope (Zeiss Axiovert 200; Carl Zeiss MicroImaging, LLC Thornwood, N.Y. 10594, USA) equipped with a 40× Plan-Neofluar (1.3 NA) oil-immersion objective, a fluorescence light source (Hamamatsu L2422 100 Watt Mercury-Xenon lamp) and a filter cube appropriate for RH237 imaging (Zeiss EX BP530-585, DC FT600, EM LP615). Fluorescence shutter opening and closing was synchronized with the pacing stimulus. Membrane voltage signals were optically recorded at 5 Hz using a honeycomb of 124 independent optical fibers, each monitoring an approximately circular field of view of 25 μm in diameter (FIGS. 6j and 6k) and each connected to a discrete photodiode transimpedance amplifier. The outputs of the photodiode amplifiers were digitized by a bank of differential amplifiers and DAQ cards (National Instruments Corporation, Austin, Tex. 78759, USA). Digitized signals were processed using custom-made software implemented in MATLAB (MathWorks, Natick, Mass. 01760, USA) (FIG. 7l). Activation times, defined as the time point of maximum positive slope of the action potential, served to calculate isochronal maps of activation and velocity vector fields across the field of view monitored by the LED array (FIGS. 7m and 7o).
Optical mapping in jellyfish (FIG. 7a-7h) was performed as in medusoid coverslips except for the following differences. All procedures were carried out in artificial seawater at room temperature (KENT Marine Sea Salt, KENT Marine Sea, 5401 West Oakwood Park Drive, Franklin, Wis. 53132). […] Thus, to constrain movement, an additional cover slip was placed on top of the jellyfish using vacuum grease as a spacer. […] Subsequently, activation times, isochronal maps and velocity vector fields were calculated as above (FIGS. 7e-7h).

Structure (SMILES) | sensitivity of jellyfish swimming muscle to excitation-contraction uncoupling agents
O=C1CN(/N=C/c2ccc(-c3ccc([N+](=O)[O-])cc3)o2)C(O)=N1 [dantrolene sodium] | insensitive
CC(=O)C(C)=NO [2,3-butanedione monoxime (BDM), 2,3-butanedione monoxime] | insensitive
C=C1[C@@H](C)[C@H]2[C@H](Cc3ccccc3)NC(=O)[C@]23[C@H](OC(C)=O)/C=C/[C@@](C)(O)C(=O)[C@@H](C)C/C=C/[C@H]3[C@@H]1O [cytochalasin D] | insensitive
Cc1ccc2c(c1)C(=O)C1(O)CCN(c3ccccc3)C1=N2 (stereo not shown) [blebbistatin] | insensitive
